The experiment has as its target T1, SIRT1 (Homo sapiens, UniProt Q96EB6).
T1 sequence (Q96EB6 1-747): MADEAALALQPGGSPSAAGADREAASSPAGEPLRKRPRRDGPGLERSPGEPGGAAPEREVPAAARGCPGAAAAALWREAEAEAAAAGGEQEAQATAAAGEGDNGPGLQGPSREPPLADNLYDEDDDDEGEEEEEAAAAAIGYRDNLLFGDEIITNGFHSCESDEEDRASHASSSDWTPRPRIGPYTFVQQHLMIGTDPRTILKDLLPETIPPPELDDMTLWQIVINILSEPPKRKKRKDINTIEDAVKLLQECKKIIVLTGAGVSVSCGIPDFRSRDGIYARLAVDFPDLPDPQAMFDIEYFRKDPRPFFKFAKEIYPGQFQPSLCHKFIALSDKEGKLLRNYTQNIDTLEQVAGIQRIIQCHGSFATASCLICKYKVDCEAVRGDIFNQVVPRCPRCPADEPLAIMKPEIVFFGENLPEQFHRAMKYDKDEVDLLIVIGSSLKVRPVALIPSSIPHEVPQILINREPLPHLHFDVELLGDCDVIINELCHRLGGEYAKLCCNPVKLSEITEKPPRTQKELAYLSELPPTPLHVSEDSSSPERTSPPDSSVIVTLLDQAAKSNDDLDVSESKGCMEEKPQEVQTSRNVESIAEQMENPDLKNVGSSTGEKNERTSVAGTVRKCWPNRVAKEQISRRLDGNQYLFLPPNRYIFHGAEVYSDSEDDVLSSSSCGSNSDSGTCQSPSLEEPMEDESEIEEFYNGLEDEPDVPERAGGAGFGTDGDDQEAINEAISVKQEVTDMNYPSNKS
Description: Mass spectrometry based assay to identify modulators of SIRT1 activity (deacetylation of p53-based acetylated peptide substrate). In kind it is biochemical. As to conditions: for Emax: 25 min, read-out: % FOLD ACT. (percent maximum fold activation); for Emax / EC1.5: SIRT1 activation. An outline of the steps: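 Deacetylation of a modified p53 acetyl-lysine peptide ([…], 5TMR-labelled, Nle for Met) by 10 nM N-His SIRT1 with 120 μM βNAD+, pH 8, 25 min, 25 °C. Substrate and product masses measured by MS after formic acid quench; nicotinamide defines maximal inhibition.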

In the case of `O=C(Nc1ncccn1)N1CCCOc2ccc(-c3cccc(Cl)c3)nc21` [Compound 865], the EC1.5 (concentration giving 1.5-fold activation) was in the range of 1 to 25 µM and the Emax was > 200%.

In the case of `Cc1cc(NC(=O)N2CCOc3ccc(-c4c(C)noc4C)nc32)cc(C)n1` [Compound 573], the Emax is > 200% and the EC1.5 result is recorded as “B (EC1.5 1-25 μM)”.

Take `Cc1cc(NC(=O)N2CCCOc3ccc(-c4cccc(F)c4)nc32)ccn1` [Compound 582]: the Emax is > 200% and the EC1.5 entry is on record as “B (EC1.5 1-25 μM)”.

Consider `Cc1cc(C)c(NC(=O)N2CCOc3ccc(-c4cccc(C(F)(F)F)c4)nc32)cn1` [Compound 553], for which the Emax is ≤ 200% and the EC1.5 entry is “B (EC1.5 1-25 μM)”.

For the compound `Cc1cnccc1NC(=O)N1CCC(C)c2ccc(-c3cccc(C(F)(F)F)c3)nc21` (centres unmarked) [Compound 784], the EC1.5 (concentration giving 1.5-fold activation) lay in the range of 1 to 25 µM and the Emax is > 200%.

Take `CCN1C(=O)CCN(C(=O)Nc2cccc(OC[C@@H](O)CO)n2)c2nc(-c3cccc(Cl)c3)ccc21` [Compound 788]: the EC1.5 (concentration giving 1.5-fold activation) was > 25 µM and the Emax was ≤ 200%.

Consider `O=C(Nc1ncc(F)cc1F)N1CCOc2ccc(-c3cccc(C(F)(F)F)c3)nc21` [Compound 567], for which the Emax was > 200% and the EC1.5 entry is reported as “B (EC1.5 1-25 μM)”.

`Cc1ccc(-c2ccc3c(n2)N(C(=O)Nc2ccnc(C)c2)CCCO3)cn1` [Compound 635]: the Emax is ≤ 200% and the EC1.5 result is on record as “C (EC1.5>25 μM)”.

Turning to `Cc1cc(NC(=O)N2CCCC(F)(F)c3ccc(-c4cccc(Cl)c4)nc32)ccn1` [Compound 773], the EC1.5 (concentration giving 1.5-fold activation) was in the range of 1 to 25 µM and the Emax was > 200%.

Regarding `Cc1cnccc1NC(=O)N1CCC(F)(F)c2ccc(-c3cccc(C(F)(F)F)c3)nc21` [Compound 744], the EC1.5 (concentration giving 1.5-fold activation) is > 25 µM and the Emax is ≤ 200%.

For `O=C(Nc1ccccn1)N1CCCc2ccc(-c3cccc(Cl)c3)nc21` [Compound 652], the Emax is > 200% and the EC1.5 result is given as “A (EC1.5<1.0 μM)”.

As to `O=C1CCN(C(=O)Nc2ccccn2)c2nc(-c3cccc(C(F)(F)F)c3)ccc21` [Compound 729], the EC1.5 (concentration giving 1.5-fold activation) lay in the range of 1 to 25 µM and the Emax is > 200%.

For the compound `Cc1cc(NC(=O)N2CCOc3ccc(-c4ccnn4C)nc32)cc(C)n1` [Compound 575], the Emax is > 200% and the EC1.5 result is on record as “B (EC1.5 1-25 μM)”.

With `Cc1cc(OCC(O)CO)nc(NC(=O)N2CCOc3ccc(-c4cccc(C(F)(F)F)c4)nc32)n1` (centres unmarked) [Compound 698], the EC1.5 (concentration giving 1.5-fold activation) is 1 to 25 µM and the Emax was ≤ 200%.

For the compound `CCN1CCCN(C(=O)Nc2cccc(OC[C@@H](O)CO)n2)c2nc(-c3cccc(Cl)c3)ccc21` [Compound 796], the EC1.5 (concentration giving 1.5-fold activation) fell in the range of 1 to 25 µM and the Emax is > 200%.

For `O=C1CCN(C(=O)Nc2ccc(F)cn2)c2nc(-c3cccc(C(F)(F)F)c3)ccc21` [Compound 730], the EC1.5 (concentration giving 1.5-fold activation) was 1 to 25 µM and the Emax was ≤ 200%.

As for `Cc1ccc(-c2ccc3c(n2)N(C(=O)Nc2cc(C)nc(C)c2)CCCO3)cn1` [Compound 637], the Emax was > 200% and the EC1.5 entry was “B (EC1.5 1-25 μM)”.

On to `O=C(Nc1cncnc1)N1CCCOc2ccc(-c3cccc(Cl)c3)nc21` [Compound 852], for which the EC1.5 (concentration giving 1.5-fold activation) lay in the range of 1 to 25 µM and the Emax is > 200%.

As to `CN1C(=O)CN(C(=O)Nc2cncnc2)c2nc(-c3cccc(C(F)(F)F)c3)ccc21` [Compound 527], the Emax is ≤ 200% and the EC1.5 result is “B (EC1.5 1-25 μM)”.

In the case of `Cc1cncc(NC(=O)N2CCCOc3ccc(-c4ccc(C)nc4)nc32)c1` [Compound 636], the Emax was ≤ 200% and the EC1.5 result was “C (EC1.5>25 μM)”.

With `O=C(Nc1cncc(F)c1)N1CCOc2ccc(-c3cccc(C(F)(F)F)c3)nc21` [Compound 547], the Emax is > 200% and the EC1.5 entry is recorded as “A (EC1.5<1.0 μM)”.

In the case of `O=C(Nc1ccncc1)N1CCCCc2ccc(-c3cccc(Cl)c3)nc21` [Compound 728, 2-(3-chlorophenyl)-N-(pyridin-4-yl)-7,8-dihydro-5H-pyrido[2,3-b]azepine-9(6H)-carboxamide], the EC1.5 (concentration giving 1.5-fold activation) was in the range of 1 to 25 µM and the Emax is > 200%.

Consider `Cc1cc(-c2ccc3c(n2)N(C(=O)Nc2ccncn2)CCCO3)ccn1` [Compound 674], for which the Emax is > 200% and the EC1.5 result is reported as “B (EC1.5 1-25 μM)”.

`CC1(C)CCN(C(=O)Nc2cccnc2)c2nc(-c3cccc(Cl)c3)ccc2C1=O` [Compound 833]: the EC1.5 (concentration giving 1.5-fold activation) is > 25 µM and the Emax is ≤ 200%.

`Cc1cc(OCC(O)CO)nc(NC(=O)N2CCCc3ccc(-c4cccc(C(F)(F)F)c4)nc32)n1` (centres unmarked) [Compound 640]: the Emax was > 200% and the EC1.5 entry is on record as “B (EC1.5 1-25 μM)”.

As to `COc1cc(NC(=O)N2CCCOc3ccc(-c4cccc(Cl)c4)nc32)ncn1` [Compound 872], the EC1.5 (concentration giving 1.5-fold activation) was < 1 µM and the Emax is > 200%.

For `Cc1cc(NC(=O)N2CCCOc3ccc(-c4ccnc(C)c4)nc32)ccn1` [Compound 656], the Emax was > 200% and the EC1.5 entry is on record as “B (EC1.5 1-25 μM)”.

With `O=C(Nc1cccnc1)N1CCCc2ccc(-c3cccc(F)c3)nc21` [Compound 650], the Emax was > 200% and the EC1.5 result is given as “B (EC1.5 1-25 μM)”.

With `O=C(Nc1ccncc1)N1CCCOc2ccc(-c3cccc(Cl)c3)nc21` [Compound 856], the EC1.5 (concentration giving 1.5-fold activation) lay within 1 to 25 µM and the Emax was > 200%.

With `CC1(C)CCN(C(=O)Nc2ccncc2F)c2nc(-c3cccc(Cl)c3)ccc2C1=O` [Compound 836, 2-(3-chlorophenyl)-N-(3-fluoropyridin-4-yl)-6,6-dimethyl-5-oxo-7,8-dihydro-5H-pyrido[2,3-b]azepine-9(6H)-carboxamide], the EC1.5 (concentration giving 1.5-fold activation) lay within 1 to 25 µM and the Emax was ≤ 200%.

Turning to `O=C(Nc1ccncn1)N1CCCC(F)(F)c2ccc(-c3cccc(Cl)c3)nc21` [Compound 799, 2-(3-chlorophenyl)-5,5-difluoro-N-(pyrimidin-4-yl)-7,8-dihydro-5H-pyrido[2,3-b]azepine-9(6H)-carboxamide], the EC1.5 (concentration giving 1.5-fold activation) was in the range of 1 to 25 µM and the Emax is ≤ 200%.

On to `Cc1cccc(NC(=O)N2CCCCc3ccc(-c4cccc(C(F)(F)F)c4)nc32)n1` [Compound 818], for which the EC1.5 (concentration giving 1.5-fold activation) was > 25 µM and the Emax was ≤ 200%.

As for `O=C(Nc1ccnc(OC[C@@H](O)CO)n1)N1CCOc2ccc(-c3cccc(C(F)(F)F)c3)nc21` [Compound 732], the EC1.5 (concentration giving 1.5-fold activation) was > 25 µM and the Emax is ≤ 200%.

Regarding `O=C(Nc1ccc(F)cn1)N1CCCCc2ccc(-c3cccc(Cl)c3)nc21` [Compound 735], the EC1.5 (concentration giving 1.5-fold activation) was > 25 µM and the Emax was ≤ 200%.

In the case of `CC1CCN(C(=O)Nc2ncccc2F)c2nc(-c3cccc(C(F)(F)F)c3)ccc21` (centres unmarked) [Compound 803], the EC1.5 (concentration giving 1.5-fold activation) lay within 1 to 25 µM and the Emax is > 200%.

For the compound `Cc1csc(NC(=O)N2CC(=O)N(C)c3ccc(-c4cccc(C(F)(F)F)c4)nc32)n1` [Compound 521], the Emax was ≤ 200% and the EC1.5 entry was “B (EC1.5 1-25 μM)”.

For `Cc1csc(NC(=O)N2CCCOc3ccc(-c4cccc(F)c4)nc32)n1` [Compound 583], the Emax is > 200% and the EC1.5 result was “B (EC1.5 1-25 μM)”.

`O=C1CCCN(C(=O)Nc2ccccn2)c2nc(-c3cccc(Cl)c3)ccc21` [Compound 768]: the EC1.5 (concentration giving 1.5-fold activation) is < 1 µM and the Emax is > 200%.

Regarding `O=C(Nc1ccncn1)N1CCOc2ccc(-c3cccc(F)c3)nc21` [Compound 514], the Emax was > 200% and the EC1.5 result is “A (EC1.5<1.0 μM)”.

As to `O=C(Nc1ccccn1)N1CCCC(F)(F)c2ccc(-c3cccc(Cl)c3)nc21` [Compound 778], the EC1.5 (concentration giving 1.5-fold activation) is > 25 µM and the Emax is ≤ 200%.

In the case of `CN(C)c1nc(-c2cccc(F)c2)nc2c1OCCN2C(=O)Nc1ccncc1` [Compound 736, 4-(dimethylamino)-2-(3-fluorophenyl)-N-(pyridin-4-yl)-6H-pyrimido[5,4-b][1,4]oxazine-8(7H)-carboxamide], the EC1.5 (concentration giving 1.5-fold activation) is > 25 µM and the Emax is ≤ 200%.

`Cc1cccnc1NC(=O)N1CCOc2ccc(-c3cccc(C(F)(F)F)c3)nc21` [Compound 569]: the Emax was ≤ 200% and the EC1.5 entry is “C (EC1.5>25 μM)”.

Regarding `Cc1cc(NC(=O)N2CCOc3ccc(-c4cnn(C)c4C)nc32)cc(C)n1` [Compound 572], the Emax was > 200% and the EC1.5 entry is “B (EC1.5 1-25 μM)”.

The record behind these values is patent US9556201B2, “Bicyclic pyridines and analogs as sirtuin modulators” (GLAXOSMITHKLINE LLC, priority 2009, dated 2017).
